pEC50, pIC50: −log10 of the molar value. Converted amounts (≈) assume the structure as drawn. Where two headings read alike, the source gives them in different places.
Key:
Para-Influenza-3 Virus = assay: organism not typed; format: cell-based; details: Vero cells
[1] = test system: Serratia marcescens ATCC 10905; assay: Minimum biofilm eradication assay; format: cell-based
Summary of the method: (§1)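 Biofilms were grown from bacterial suspensions at 10^7 CFU/mL in 96-well plates, then washed three times to remove non-adherent cells. Attached biomass was methanol-fixed (15 min), stained with 1% crystal violet (5 min), solubilized in ethanol and read at 570 nm; MBEC is the lowest compound dilution at which bacteria fail to grow.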

[2] = test system: Pseudomonas aeruginosa ATCC 27853; assay: Minimum biofilm eradication assay; format: cell-based
Summary of the method: as §1

[3] = test system: Proteus mirabilis MFBF 10430; assay: Minimum biofilm eradication assay; format: cell-based
Summary of the method: as §1

[4] = test system: Salmonella enteritidis MFBF 11945; assay: Minimum biofilm eradication assay; format: cell-based
Summary of the method: as §1

[5] = test system: Bacillus cereus ATCC 11778; assay: Minimum biofilm eradication assay; format: cell-based
Summary of the method: as §1

[6] = test system: Staphylococcus aureus ATCC 6538; assay: Minimum biofilm eradication assay; format: cell-based
Summary of the method: as §1

[7] = test system: Escherichia coli ATCC 10536; assay: Minimum biofilm eradication assay; format: cell-based
Summary of the method: as §1

[8] = test system: DND-41 (acute lymphoblastic leukemia); assay: Antiproliferative screening (cytostatic activity); format: cell-based, human; details: 72 h, IncuCyte imaging, read-out: IC50 DND-41
Method: Cytostatic activity was evaluated in vitro on nine different types of human tumor cell lines: Capan-1, Hap1, HCT-116, and NCI-H460, as well as hematological tumors such as DND-41, HL-60, K-562, MM.1S and Z-138 as described previously. All human tumor cell lines were acquired from the American Type Culture Collection (ATCC, Manassas, VA, USA), except for the DND-41 cell line which was purchased from the Deutsche Sammlung von Mikroorganismen und Zellkulturen (DSMZ Leibniz-Institut, Braunschweig, Germany) and the Hap1 cell line which was purchased from Horizon Discovery (Waterbeach, UK). Capan-1, Hap1, HL-60, K-562, Z-138, MM.1S and DND-41 were cultured in Iscove′s Modified Dulbecco′s Medium (IMDM, Gibco Life Technologies, Gaithersburg, MD, USA), HCT-116 were grown in McCoy′s 5A Medium (Gibco Life Technologies) and NCI-H460 were cultured in RPMI (Gibco Life Technologies). All media were supplemented with 10% FBS (HyClone, GE Healthcare Life Sciences, USA). Adherent cell lines HCT-116, Hap1, NCI-H460, and Capan-1 cells were seeded at a density between 400 and 1250 cells per well, in 384-well, black-walled, clear-bottomed tissue culture plates (Greiner Bio-One, Kremsmünster, Germany). After overnight incubation, cells were treated with test compounds at four different concentrations ranging from 100 to 0.8 µM. Suspension cell lines HL-60, K-562, Z-138, MM.1S, and DND-41 were seeded at densities ranging from 3000 to 10,000 cells per well in 384-well, black-walled, clear-bottomed tissue culture plates containing test compounds at the same four concentrations. The plates were incubated and monitored at 37 °C for 72 h in an IncuCyte (Essen BioScience Inc., Ann Arbor, MI, USA) for real-time imaging. Images were taken every 3 h, with one field image per well under 10× magnification. All compounds were tested with duplicate data points and averaged. […]

Punta Toro Virus = assay: microbe, parasite or virus in culture; format: cell-based; details: Vero cells
in vitro = details: African green monkey
Reovirus-1 = assay: Antiviral activity in Vero cell cultures; format: cell-based; details: Vero cells
[9] = test system: Mycobacterium marinum CAMP 5644; assay: Antimycobacterial susceptibility assay (MIC determination); format: cell-based; details: CAMP5644, 504 h
Method: The broth dilution micro-method in Middlebrook 7H9 medium (Difco, Lawrence, KS, USA) supplemented with ADC Enrichment (Becton, Dickinson and Comp.) was used to determine MIC as previously described. […] Bacterial inocula were prepared by transferring colonies from culture to sterile water. The cell density was adjusted to 0.5 McFarland units using a densitometer (Densi-La-Meter, LIAP, Riga, Latvia). The final inoculum was made by 1:1000 dilution of the suspension with sterile water. Drug-free controls, sterility controls and controls consisted of medium and DMSO (Sigma-Aldrich, St. Louis, MO, USA) alone were included. […] Ciprofloxacin (CIP), rifampicin (RIF) and isoniazid (INH) (Sigma-Aldrich, St. Louis, MO, USA) were used as the standards.

[10] = MTS, read-out: EC50 Para-Influenza-3 Virus, MTS
[11] = MTS, read-out: EC50 Punta Toro Virus, MTS
[12] = MTS, read-out: EC50 Reovirus-1, MTS
[13] = Mycobacterium marinum CAMP 5644, 21 days, 28 °C, read-out: MIC
[14] = visual CPE score, read-out: EC50 Para-Influenza-3 Virus, Visual CPE Score
[15] = visual CPE score, read-out: EC50 Punta Toro Virus, Visual CPE Score
[16] = visual CPE score, read-out: EC50 Reovirus-1, Visual CPE Score

## COc1cc(NC(C)CCCNC(=O)/C=C/C(=O)Nc2cccc(F)c2)c2ncccc2c1 (stereo not drawn) [Compound 4a, (2E)-N-(3-Fluorophenyl)-N′-{4-[(6-methoxyquinolin-8-yl)amino]pentyl}but-2-enediamide]
Para-Influenza-3 Virus; [10]
  pEC50: < 4.30
[1]
  MBEC: 25 µg/mL
[2]
  MBEC: 25 µg/mL
[3]
  MBEC: >100 µg/mL
[4]
  MBEC: >100 µg/mL
[5]
  MBEC: >100 µg/mL
[6]
  MBEC: 12.5 µg/mL
[7]
  MBEC: 100 µg/mL
[8]; Homo sapiens, DND41, 72 h
  pIC50: 5.17
Punta Toro Virus; [11]
  pEC50: < 4.30
In vitro
  CC50: 46.9 µg/mL (≈ 104 µM)
other
  melting point: 203 to 204 °C
Reovirus-1; [12]
  pEC50: < 4.30
[9]; [13]
  MIC: > 256 µg/mL

## COc1cc(NC(C)CCCNC(=O)/C=C/C(=O)Nc2ccc(F)cc2)c2ncccc2c1 (stereo not drawn) [Compound 4b, (2E)-N-(4-Fluorophenyl)-N′-{4-[(6-methoxyquinolin-8-yl)amino]pentyl}but-2-enediamide]
Para-Influenza-3 Virus; [10]
  pEC50: < 4.30
[1]
  MBEC: >100 µg/mL
[2]
  MBEC: 12.5 µg/mL
[3]
  MBEC: 25 µg/mL
[4]
  MBEC: >100 µg/mL
[5]
  MBEC: 25 µg/mL
[6]
  MBEC: 12.5 µg/mL
[7]
  MBEC: 50 µg/mL
[8]; Homo sapiens, DND41, 72 h
  pIC50: < 4.00
Punta Toro Virus; [11]
  pEC50: < 4.30
In vitro
  CC50: > 50 µg/mL
other
  melting point: 226 to 227 °C
Reovirus-1; [12]
  pEC50: < 4.30
[9]; [13]
  MIC: 64 µg/mL (≈ 142 µM)

## COc1cc(NC(C)CCCNC(=O)/C=C/C(=O)Nc2cccc(Cl)c2)c2ncccc2c1 (stereo not drawn) [Compound 4c, (2E)-N-(3-Chlorophenyl)-N′-{4-[(6-methoxyquinolin-8-yl)amino]pentyl}but-2-enediamide]
Para-Influenza-3 Virus; [10]
  pEC50: < 4.30
Para-Influenza-3 Virus; [14]
  pEC50: < 4.30
[1]
  MBEC: >100 µg/mL
[2]
  MBEC: 50 µg/mL
[3]
  MBEC: >100 µg/mL
[4]
  MBEC: >100 µg/mL
[5]
  MBEC: 25 µg/mL
[6]
  MBEC: 12.5 µg/mL
[7]
  MBEC: 50 µg/mL
[8]; Homo sapiens, DND41, 72 h
  pIC50: 5.08
Punta Toro Virus; [11]
  pEC50: 5.26
Punta Toro Virus; [15]
  pEC50: < 4.30
In vitro
  CC50: > 50 µg/mL
other
  melting point: 187 to 188 °C
Reovirus-1; [12]
  pEC50: 5.42
Reovirus-1; [16]
  pEC50: < 4.30
[9]; Mycobacterium marinum
  MIC: 128 µg/mL (≈ 274 µM)

## COc1cc(NC(C)CCCNC(=O)/C=C/C(=O)Nc2ccc(Cl)cc2)c2ncccc2c1 (stereo not drawn) [Compound 4d, (2E)-N-(4-Chlorophenyl)-N′-{4-[(6-methoxyquinolin-8-yl)amino]pentyl}but-2-enediamide]
Para-Influenza-3 Virus; [10]
  pEC50: < 4.30
[1]
  MBEC: >100 µg/mL
[2]
  MBEC: >100 µg/mL
[3]
  MBEC: >100 µg/mL
[4]
  MBEC: >100 µg/mL
[5]
  MBEC: >100 µg/mL
[6]
  MBEC: 25 µg/mL
[7]
  MBEC: 50 µg/mL
[8]; Homo sapiens, DND41, 72 h
  pIC50: < 4.00
Punta Toro Virus; [11]
  pEC50: < 4.30
In vitro
  CC50: > 50 µg/mL
other
  melting point: 223 to 226 °C
Reovirus-1; [12]
  pEC50: < 4.30
[9]; [13]
  MIC: 64 µg/mL (≈ 137 µM)

## COc1cc(NC(C)CCCNC(=O)/C=C/C(=O)Nc2cccc(C(F)(F)F)c2)c2ncccc2c1 (stereo not drawn) [Compound 4e, (2E)-N′-{4-[(6-Methoxyquinolin-8-yl)amino]pentyl}-N-[3-(trifluoromethyl)phenyl]but-2-enediamide]
Para-Influenza-3 Virus; [10]
  pEC50: < 4.30
Para-Influenza-3 Virus; [14]
  pEC50: < 4.30
[1]
  MBEC: >100 µg/mL
[2]
  MBEC: 50 µg/mL
[3]
  MBEC: >100 µg/mL
[4]
  MBEC: >100 µg/mL
[5]
  MBEC: >100 µg/mL
[6]
  MBEC: 50 µg/mL
[7]
  MBEC: 50 µg/mL
[8]; Homo sapiens, DND41, 72 h
  pIC50: 5.05
Punta Toro Virus; [11]
  pEC50: 5.27
Punta Toro Virus; [15]
  pEC50: < 4.30
In vitro
  CC50: > 50 µg/mL
other
  melting point: 149 to 150 °C
Reovirus-1; [12]
  pEC50: 5.51
Reovirus-1; [16]
  pEC50: < 4.30
[9]; [13]
  MIC: 256 µg/mL (≈ 511 µM)

## COc1cc(NC(C)CCCNC(=O)/C=C/C(=O)Nc2ccc(C(F)(F)F)cc2)c2ncccc2c1 (stereo not drawn) [Compound 4f, (2E)-N′-{4-[(6-Methoxyquinolin-8-yl)amino]pentyl}-N-[4-(trifluoromethyl)phenyl]but-2-enediamide]
Para-Influenza-3 Virus; [10]
  pEC50: < 4.30
[1]
  MBEC: >100 µg/mL
[2]
  MBEC: 25 µg/mL
[3]
  MBEC: >100 µg/mL
[4]
  MBEC: >100 µg/mL
[5]
  MBEC: >100 µg/mL
[6]
  MBEC: 25 µg/mL
[7]
  MBEC: 50 µg/mL
[8]
  pIC50: < 4.00
Punta Toro Virus; [11]
  pEC50: < 4.30
In vitro
  CC50: > 50 µg/mL
other
  melting point: 189 to 191 °C
Reovirus-1; [12]
  pEC50: < 4.30
[9]; [13]
  MIC: 64 µg/mL (≈ 128 µM)
